Measured values: ChEMBL document CHEMBL1136691, “Identification of novel and potent isoquinoline aminooxazole-based IMPDH inhibitors” (Bioorg Med Chem Lett, 2003)
pIC50: −log10 of the molar value.

Target: Inosine-5'-monophosphate dehydrogenase 2 (Homo sapiens, UniProt P12268)
Assay: Inhibitory activity against inosine […] monophosphate dehydrogenase type II (IMPDH II)

| SMILES | pIC50 |
| --- | --- |
| c1ccc(-c2cnc(Nc3ccc4cncnc4c3)o2)cc1 | 7.22 |
| c1ccc(-c2cnc(Nc3ccc4cnccc4c3)o2)cc1 | 8.30 |
| CCCc1c(N)ccc2cnccc12 | < 5.30 |
| Cc1ccccc1NC(=O)Nc1ccc2cnccc2c1 | 5.42 |
| Cc1c(N)ccc2cnccc12 | < 5.30 |
| O=C(Nc1ccccc1)Nc1ccc2ccncc2c1 | < 5.30 |
| O=C(Nc1ccccc1)Nc1ccc2cnccc2c1 | 6.13 |
| Nc1ccc2cnccc2c1N | < 5.30 |
| COc1ccc2cnccc2c1Br | < 5.30 |
| Nc1ccc2cnccc2c1 | < 5.30 |
| C=CCc1c(N)ccc2cnccc12 | 5.52 |
| CC(=O)Nc1ccc2cnccc2c1 | < 5.30 |
| Cc1cccc(NC(=O)Nc2ccc3cnncc3c2)c1 | < 5.30 |
| Cc1cccc(NC(=O)Nc2ccc3nnccc3c2)c1 | < 5.77 |
| Cc1ccc(NC(=O)Nc2ccc3cnccc3c2)cc1 | 6.61 |
| CC(=O)Nc1ccc2cnccc2c1Cl | < 5.30 |

Further lines, results first:

| pIC50 | SMILES |
| --- | --- |
| 7.74 | Cc1cccc(NC(=O)Nc2ccc3cnccc3c2)c1 |
| 6.82 | Cc1cccc(NC(=O)Nc2ccc3cncnc3c2)c1 |
| 6.09 | C=Cc1c(N)ccc2cnccc12 |
| 6.26 | Nc1ccc2cnccc2c1Br |
| 5.78 | O=C(Nc1ccccc1)Nc1ccc2cnccc2c1Cl |
| 5.92 | Nc1ccc2cnccc2c1Cl |
| < 5.30 | CC(=O)Nc1ccc2cnccc2c1Br |
| 6.13 | O=C(Nc1ccccc1)Nc1ccc2cnccc2c1Br |
| 6.40 | O=C(NCc1ccccc1)Nc1ccc2cnccc2c1 |
